Test results taken from US11920158B2, “Cardiomyocyte maturation” (The Council of the Queensland Institute of Medical Research, priority 2016, dated 2024).
Read-outs that look alike come from different tables or passages of the source.

What was measured:
[1] = test system: human cardiac organoids (hCOs); test: ELISAs for lactate dehydrogenase and cardiac troponin I (cell viability of hCO); type: cell-based; conditions: addition of palmitate, serum-free culture of hCOs
[2] = test system: human cardiac organoids (hCOs); test: Force analysis of hCO in Heart-Dyno (pole deflection, contraction parameters); type: cell-based; conditions: for EC50: read-out: calcium EC50 for force of contraction
Experimental: CTRL medium: α-MEM GlutaMAX (ThermoFisher Scientific), 10% fetal bovine serum (FBS) (ThermoFisher Scientific), 200 μM L-ascorbic acid 2 phosphate sesquimagnesium salt hydrate (Sigma) and 1% Penicillin/Streptomycin (ThermoFisher Scientific). For each hCO, 5×10^4 cardiac cells in CTRL medium were mixed with collagen I to make a 3.5 μl final solution containing 2.6 mg/ml collagen I and 9% Matrigel. The bovine acid-solubilized collagen I (Devro) was first salt balanced and pH neutralized using 10×DMEM and 0.1 M NaOH, respectively, prior to mixing with Matrigel and cells. The mixture was prepared on ice and pipetted into the Heart-Dyno. The Heart-Dyno was then centrifuged at 100×g for 10 s to ensure the hCO form halfway up the posts. The mixture was then gelled at 37° C. for 30 min prior to the addition of CTRL medium to cover the tissues (150 μl/hCO). The Heart-Dyno design facilitates the self-formation of tissues around in-built PDMS exercise poles (designed to deform ˜0.07 μm/μN). The medium was changed every 2-3 days (150 μl/hCO). hCOs were cultured in CTRL medium for formation and then changed to serum-free media as indicated for experiments. For all screening experiments, after hCO formation, hCOs were cultured in serum-free conditions comprising DMEM without glucose, glutamine and phenol red (ThermoFisher Scientific) supplemented with 4% B27 (with or without insulin) (ThermoFisher Scientific), 1% GlutaMAX (ThermoFisher Scientific), 200 μM L-ascorbic acid 2 phosphate sesquimagnesium salt hydrate and 1% Penicillin/Streptomycin (ThermoFisher Scientific). […] A timeline of the finalized hCO fabrication, culture and maturation protocol can be found in FIG. 1m.
The pole deflection was used to approximate the force of contraction. A Leica DMi8 inverted high content Imager was used to capture a 10 s time-lapse of each hCO contracting in real time at 37° C. Custom batch processing files were written in Matlab R2013a (Mathworks) to convert the stacked TIFF files to AVI, track the pole movement (using vision.PointTracker), determine the contractile parameters, produce a force-time figure, and export the batch data to an Excel (Microsoft) spreadsheet.
Custom batch processing files were written in Matlab R2013a (Mathworks) to convert the stacked TIFF files to AVI, track the pole movement (using vision.PointTracker), determine the contractile parameters, produce a force-time figure, and export the batch data to an Excel (Microsoft) spreadsheet. The follow formulae were used to determine the contractile force at each time-point. Maximum deflection at the end of a rectangular cantilever fixed at one end with force applied at a specified distance:
Based on the parameters of our system: E=1500 kPa, b=0.5 mm, h=0.2 mm, L=0.7 mm, and x=0.35 mm (hCO half-way up the poles), k=14 μN/μm.

[3] = test system: hPSC-CMs in human cardiac organoids (hCOs); test: Whole-mount immunostaining and image analysis of hCO (Ki-67, pH3, MLC2v, activated β-catenin, 8-OxoG, pATM, α-actinin, DNA); type: cell-based
Experimental: hCOs were fixed for 60 min with 1% paraformaldehyde (Sigma) at room temperature and washed 3× with PBS, after which they were incubated with primary antibodies (Table 1) in Blocking Buffer, 5% FBS and 0.2% Triton-X-100 (Sigma) in PBS overnight at 4° C. Cells were then washed in Blocking Buffer 2× for 2 h and subsequently incubated with secondary antibodies (Table 1) and Hoescht (1:1000) overnight at 4° C. They were washed in Blocking Buffer 2× for 2 h and imaged in situ or mounted on microscope slides using Fluoromount-G (Southern Biotech). For screening hCO were imaged using a Leica DMi8 high content imaging microscope for in situ imaging. Custom batch processing files were written in Matlab R2013a (Mathworks) to remove the background, calculate the image intensity, and export the batch data to an Excel (Microsoft) spreadsheet. For more detailed images an Olympus IX81 confocal microscope or a Nikon Diskovery Spinning Disk confocal microscope for mounted imaging. For cell cycle analysis experiments 3 random fields of view were imaged and manually quantified for proliferation. These were added together to calculate the percentage of hPSC-CM proliferation in each hCO.

[4] = test system: human cardiac organoids (hCOs); test: hCO tissue viability (viable, intact and functional tissues); type: cell-based; conditions: prolonged presence within the maturation media
[5] = test system: adult cardiac muscle; conditions: ref (23), read-out: calcium EC50; cited from earlier work

Compound: CCCCCCCCCCCCCCCC(=O)O [palmitate, palmitic acid]
- lactate dehydrogenase levels [1]: unaffected
- hCO force of contraction ([2]; 100 μM palmitate, absence of insulin, 0.5, 1 and 5.5 mM glucose): significantly higher forces
- hCO force of contraction ([2]; addition of 10 μM and 100 μM palmitate, serum-free conditions with insulin, vs 0 μM palmitate): trend to increase
- MLC2v expression ([3]; addition of palmitate, serum-free with insulin, relative to 5.5 mM glucose without palmitate): increased
- MLC2v expression ([3]; palmitate, absence of insulin): trend to increased MLC2v expression

Compound: CC(C)NCC(O)c1ccc(O)c(O)c1 (centres unmarked) [isoprenaline, reference compound]
- force of contraction ([2]; hCOs cultured in MM, culture medium 1.8 mM Ca2+ (no increase in CTRL medium)): increase in the force of contraction
- rate of contraction ([2]; hCOs in both CTRL medium and MM): increased the rate of contraction
- 50% contraction time ([2]; paced 1 Hz at the calcium EC50, both CTRL medium and MM hCO): decreased 50% contraction time

Compound: TGF-β1: TGFβ-1 growth factor (Peprotech)
- hCO function (force of contraction) ([2]; 0, 1, 3 and 10 ng/ml, day 2-5, 2-7 and 2-9, H9-derived hCOs): detrimental to hCO function
- contractile function ([2]; prolonged presence within the maturation media): compromised the contractile function
- cell death [4]: significant cell death

Compound: COc1cc(N)c(Cl)cc1C(=O)NC1CCN(CCCOc2ccc(F)cc2)CC1OC (centres unmarked) [cisapride, reference compound]
- relaxation time ([2]; hCO, pro-arrhythmogenic compound with hERG toxicity): prolong relaxation time

Compound: insulin: insulin, commonly used in serum-free medium supplements (B27 with insulin)
- activated β-catenin ([3]; 48 h, regardless of glucose or palmitate): highly dependent on insulin
- re-activation of hPSC-CM proliferation (Ki-67) ([3]; addition of insulin after 11 days in MM): not sufficient to re-activate
- hPSC-CM proliferation (Ki-67 expression) ([3]; serum-free conditions, 1 mM glucose and 10 μM palmitate): inducing hPSC-CM proliferation

Compound: Cc1c[nH]c(-c2cnc(NCCNc3ccc(C#N)cn3)nc2-c2ccc(Cl)cc2Cl)n1 [CHIR99021, reference compound]
- proliferating (Ki-67) hPSC-CMs (α-actinin) ([3]; hCOs cultured in MM, 24 h treatment): blunted proliferative response
- proliferation (α-actinin and Ki-67 staining) ([3]; hCOs, 5 μm CHIR vs 0.05% DMSO): pro-proliferative effects

Compound: [Ca+2] [calcium]
- EC50 ([2]; hCOs cultured in CTRL medium): 300 µM
- EC50 ([2]; hCOs cultured in MM): 1000 µM
- EC50 [5]: 2600 to 6000 µM
